Consider 49 compounds from US11780845B2 (Relay Therapeutics, Inc., priority 2019, dated 2023).

For orientation: IC50 means the concentration at which inhibition is half-maximal.

In assay [1] the target is FGFR2 (Homo sapiens (Human), UniProt P21802). Nature of the assay: Biochemical FGFR2 Caliper assay.
Assay [2] has as its system SNU-16. Nature of the assay: Cell SNU-16 assay. The assay is classed as cell-based.
[3] abbreviates: Homo sapiens, SNU-16, SNU-16 cells.

FGFR2, sequence (P21802 22-821): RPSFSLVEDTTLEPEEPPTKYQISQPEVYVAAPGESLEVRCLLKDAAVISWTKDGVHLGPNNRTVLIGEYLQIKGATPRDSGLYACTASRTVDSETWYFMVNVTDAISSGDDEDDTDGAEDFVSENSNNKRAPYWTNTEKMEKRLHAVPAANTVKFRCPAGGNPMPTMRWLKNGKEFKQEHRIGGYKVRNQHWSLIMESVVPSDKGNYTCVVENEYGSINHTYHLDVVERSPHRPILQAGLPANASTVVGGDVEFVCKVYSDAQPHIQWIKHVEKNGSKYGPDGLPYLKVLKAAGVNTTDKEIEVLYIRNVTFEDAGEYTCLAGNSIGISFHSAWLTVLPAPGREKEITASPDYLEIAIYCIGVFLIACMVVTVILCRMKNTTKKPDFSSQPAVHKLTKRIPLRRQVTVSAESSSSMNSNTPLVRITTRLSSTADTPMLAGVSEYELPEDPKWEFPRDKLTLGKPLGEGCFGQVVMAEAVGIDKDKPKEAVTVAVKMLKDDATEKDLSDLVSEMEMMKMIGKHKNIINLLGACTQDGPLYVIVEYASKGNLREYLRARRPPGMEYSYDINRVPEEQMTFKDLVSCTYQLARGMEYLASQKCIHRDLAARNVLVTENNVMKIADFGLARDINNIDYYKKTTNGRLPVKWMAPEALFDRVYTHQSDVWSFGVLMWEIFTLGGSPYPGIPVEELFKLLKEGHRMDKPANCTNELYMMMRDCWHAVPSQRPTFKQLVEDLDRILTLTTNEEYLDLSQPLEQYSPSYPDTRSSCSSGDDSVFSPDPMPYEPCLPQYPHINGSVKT

On to `C=C(C)C(=O)Nc1ccc(-c2c(-c3ccc(Oc4cccc(C)n4)c(F)c3)c3c(N)ncnc3n2C)c(C)n1` [Example 1103], for which the IC50 in assay [1] is less than 100 nM; in assay [2] (setting [3]) it was no more than 100 nM.

Regarding `C=C(C)C(=O)Nc1ccc(-c2c(C3=CC[C@@H](C(=O)N4CCCC45COC5)CC3)c3c(N)ncnc3n2C)c(F)c1` [Example 1011], the IC50 in assay [1] was less than 100 nM; in assay [2] (setting [3]), no more than 100 nM.

Take `COCC#Cc1ccc2cc(-c3c(-c4ccc(Oc5nccc(C)n5)c(F)c4)c4c(N)ncnc4n3C)ccc2n1` [Example 1427]: the values for the IC50 in assay [1] and in assay [2] (setting [3]) were less than 100 nM and no more than 100 nM, respectively.

Regarding `C=C(C)C(=O)Nc1ccc(-c2c(-c3ccc(-c4cccc(O)c4)c(C#N)c3)c3c(N)ncnc3n2C)cc1` [Example 1389], the IC50 was in the range of 1000 to 100000 nM in assay [1] and 250 to 1000 nM in assay [2] (setting [3]).

For `C=C(C)C(=O)Nc1ccc(-c2c(-c3ccc(Oc4nccc(C)n4)cc3)c3c(N)ncnc3n2C)c(Cl)c1C` [Example 1064], the IC50 is less than 100 nM in assay [1] and no more than 100 nM in assay [2] (setting [3]).

As for `C=C(C)C(=O)Nc1ccc(-c2c(C3=CC[C@H](C(=O)N4CCCC4)CC3)c3c(N)ncnc3n2C)c(C)c1` (single isomer, unassigned) [Example 1034], the IC50 was 100 to 250 nM in assay [1] and no more than 100 nM in assay [2] (setting [3]).

Regarding `C=C1CCCN(c2ccc(-c3c(-c4ccc(Oc5nccc(C)n5)cc4)c4c(N)ncnc4n3C)cc2)C1=O` [Example 1087], the IC50 in assay [1] is less than 100 nM; in assay [2] (setting [3]) it was no more than 100 nM.

Turning to `C=C(C)C(=O)Nc1ccc(-c2c(C3=CC[C@@H](C(=O)N4CCc5ccccc54)CC3)c3c(N)ncnc3n2C)cc1` (single isomer, unassigned) [Example 985], the IC50 in assay [1] and in assay [2] (setting [3]) was 250 to 1000 nM each time.

As for `Cn1c(-c2ccc(NC(=O)C3CN3)cc2)c(-c2ccc(C(=O)N3CCCC3)cc2)c2c(N)ncnc21` (centres unmarked) [Example 901], the IC50 in assay [1] and in assay [2] (setting [3]) was 1000 to 100000 nM in each case.

On to `C=C(C)C(=O)Nc1ccc(-c2c(C3=CC[C@@H](S(=O)(=O)N4CCCC4)CC3)c3c(N)ncnc3n2C)cc1` [Example 993], for which the IC50 was less than 100 nM in assay [1] and no more than 100 nM in assay [2] (setting [3]).

Turning to `C=CC(=O)Nc1ccc(-c2c(-c3ccc(Oc4nccc(C)n4)cc3)c3c(C)ncnc3n2C)c(C)c1` [Example 1104], the half-inhibitory concentration (IC50) in assay [1] was less than 100 nM; in assay [2] (setting [3]) it was no more than 100 nM.

`C=C(C)C(=O)Nc1ccc(-c2c(-c3ccc(C(=O)NC4(COC)CCC4)c(OC)c3)c3c(N)ncnc3n2C)cc1` [Example 956]: the IC50 was less than 100 nM in assay [1] and no more than 100 nM in assay [2] (setting [3]).

`Cc1ccnc(Oc2ccc(-c3c(-c4ccc(NC(=O)C5=CCOC5)cc4)n(C)c4ncnc(N)c34)cc2)n1` [Example 904]: the IC50 in assay [1] and in assay [2] (setting [3]) was 1000 to 100000 nM in each case.

Take `C=C(C)C(=O)Nc1ccc(-c2c(C3=CC[C@H](C(=O)N4CCCC4)CC3)c3c(N)ncnc3n2C)c(F)c1` [Example 1001]: the IC50 is less than 100 nM in assay [1] and no more than 100 nM in assay [2] (setting [3]).

Take `C=C(C)C(=O)Nc1ccc(-c2c(C3=CC[C@@H](C(=O)N4CCC[C@]45CCOC5)CC3)c3c(N)ncnc3n2C)cc1` (single isomer, unassigned) [Example 961]: the IC50 in assay [1] lay within 1000 to 100000 nM; in assay [2] (SNU-16 cells) it was 250 to 1000 nM.

Regarding `C=C(C)C(=O)Nc1ccc(-c2c(C3=CC[C@@H](C(=O)N4CCC[C@H]4COC)CC3)c3c(N)ncnc3n2C)cc1` (single isomer, unassigned) [Example 981], the IC50 in assay [1] and in assay [2] (setting [3]) was 250 to 1000 nM each time.

Turning to `C=CC(=O)N[C@H]1CCc2cc(-c3c(-c4ccc(Oc5nccc(C)n5)cc4)c4c(N)ncnc4n3C)ccc21` (single isomer, unassigned) [Example 929], the IC50 fell in the range of 250 to 1000 nM in assay [1] and 100 to 250 nM in assay [2] (setting [3]).

Consider `C=C(C)C(=O)Nc1ccc(-c2c(C3=CC[C@@H](C(=O)N4CC[C@@H]5C[C@@H]54)CC3)c3c(N)ncnc3n2C)cc1` [Example 1037], for which the IC50 in assay [1] is less than 100 nM; in assay [2] (setting [3]), 250 to 1000 nM.

On to `C=C(C)C(=O)Nc1ccc(-c2c(C3=CC[C@H](C(=O)N4CCc5ccccc54)CC3)c3c(N)ncnc3n2C)cc1` (single isomer, unassigned) [Example 986], for which the IC50 in assay [1] and in assay [2] (setting [3]) was 250 to 1000 nM throughout.

Turning to `Cc1ccnc(Oc2ccc(-c3c([C@H]4CCN(C(=O)CCl)C4)n(C)c4ncnc(N)c34)cc2)n1` (single isomer, unassigned) [Example 876], the IC50 in assay [1] is less than 100 nM; in assay [2] (setting [3]), no more than 100 nM.

For `C#Cc1cc(OC)c(-c2c(-c3ccc(Oc4nccc(C)n4)c(F)c3)c3c(N)ncnc3n2C)cn1` [Example 1433], the results for the IC50 in assay [1] and in assay [2] (setting [3]) were less than 100 nM and no more than 100 nM, respectively.

`C=C(C)C(=O)Nc1ccc(-c2c(-c3ccc4oc(C)nc4c3)c3c(N)ncnc3n2C)cc1` [Example 1280]: the IC50 in assay [1] and in assay [2] (setting [3]) was 250 to 1000 nM in each case.

For `C=CC(=O)N1CCC(c2c(-c3cnn(-c4ccccc4C)c3)c3c(N)ncnc3n2C)C1` (centres unmarked) [Example 817], the concentration for half-maximal inhibition (IC50) in assay [1] and in assay [2] (setting [3]) was 100 to 250 nM in each case.

As for `C=C(C)C(=O)Nc1ccc(-c2c(C3=CC[C@H](C(=O)N4CCC[C@@]45CCOC5)CC3)c3c(N)ncnc3n2C)cc1` (single isomer, unassigned) [Example 960], the IC50 in assay [1] and in assay [2] (SNU-16 cells) was 1000 to 100000 nM each time.

Turning to `C=C(C)C(=O)Nc1cc(C)c(-c2c(-c3ccc(Oc4cccc(C)n4)c(F)c3)c3c(N)ncnc3n2C)cn1` [Example 1091], the IC50 in assay [1] and in assay [2] (setting [3]) was 1000 to 100000 nM each time.

In assay [2] (SNU-16 cells), `C#Cc1cc(C)c(-c2c(-c3ccc(Oc4nccc(C)n4)c(F)c3)c3c(N)ncnc3n2C)c(C)n1` (atropisomer, axis not shown) [Example 1344] had a half-inhibitory concentration (IC50) of no more than 100 nM.

In turn, `C#Cc1ncc(-c2c(-c3ccc(Oc4nccc(C)n4)c(F)c3)c3c(N)ncnc3n2C(C)C)c(C)c1F` (atropisomer, axis not shown) [Example 1360] registered an IC50 in assay [2] (SNU-16 cells) of no more than 100 nM.

Turning to `C#Cc1cc(C)c(-c2c(C3=CC[C@H](C(=O)N4CCC[C@H]4C#N)CC3)c3c(N)ncnc3n2C)c(C)n1` (atropisomer, axis not shown) [Example 1470], in assay [2] (SNU-16 cells), the IC50 is no more than 100 nM.

`C#Cc1cc2c(cn1)-c1c(-c3ccc(Oc4nccc(C)n4)c(F)c3)c3c(N)ncnc3n1CCO2` [Example 1494] had an IC50 in assay [2] (SNU-16 cells) of no more than 100 nM.

Take `C=C(C)C(=O)Nc1cc(C)c(-c2c(C3=CC[C@@H](C(=O)N4CCCC4)CC3)c3c(N)ncnc3n2C)c(C)c1` (single isomer, unassigned) [Example 1485]: in assay [2] (SNU-16 cells), the half-inhibitory concentration (IC50) was in the range of 1000 to 100000 nM.

`C#Cc1cc(C)c(-c2c(-c3ccc(Oc4nccc(C)n4)c(F)c3)c3c(N)ncnc3n2C(C)C)cn1` (atropisomer, axis not shown) [Example 1308]: the IC50 in assay [2] (SNU-16 cells) is no more than 100 nM.

Take `C#Cc1cc(C)c(-c2c(-c3ccc(Oc4nccc(C)n4)c(F)c3)c3c(C)ncnc3n2C)c(F)n1` [Example 1415]: the IC50 in assay [2] (SNU-16 cells) is no more than 100 nM.

Take `C=CC(=O)Nc1ccc(-c2c(-c3ccc(Oc4nccc(C)n4)c(F)c3)c3c(C)ncnc3n2C)c(C)c1` [Example 1127]: the IC50 in assay [2] (SNU-16 cells) is no more than 100 nM.

The compound `C#Cc1ncc(-c2c(C3=CC[C@H](C(=O)N4CCCC4)CC3)c3c(C)ncnc3n2C)c(C)n1` [Example 1179] registered a half-inhibitory concentration (IC50) in assay [2] (SNU-16 cells) of no more than 100 nM.

In assay [2] (SNU-16 cells), `C#Cc1cc(C)c(-c2c(-c3ccc(Oc4nccc(C)n4)c(F)c3)c3c(N)ncnc3n2C)c(F)n1` (atropisomer, axis not shown) [Example 1340] yielded an IC50 of no more than 100 nM.

The compound `C#Cc1cc(OC)c(-c2c(C3=CC[C@H](C(=O)N4CCC[C@H]4C#N)CC3)c3c(C)ncnc3n2C)c(C)n1` [Example 1474] displayed an IC50 in assay [2] (SNU-16 cells) of no more than 100 nM.

Regarding `C#Cc1ccc(-c2c(-c3ccc(Oc4nccc(C)n4)c(F)c3)c3c(N)ncnc3n2C(C)C)c(C)n1` (atropisomer, axis not shown) [Example 1259], the half-inhibitory concentration (IC50) in assay [2] (SNU-16 cells) was no more than 100 nM.

On to `C#Cc1cc(C)c(-c2c(-c3ccc(Oc4nccc(C)n4)c(F)c3)c3c(C)ncnc3n2C)c(C)n1` [Example 1409], for which the IC50 in assay [2] (SNU-16 cells) is no more than 100 nM.

`C#Cc1cc(C)c(-c2c(-c3ccc(Oc4nccc(C)n4)c(F)c3)c3c(N)ncnc3n2C(C)C)cn1` (atropisomer, axis not shown) [Example 1307]: the IC50 in assay [2] (SNU-16 cells) is no more than 100 nM.

Regarding `C=C(C)C(=O)Nc1ccc(-c2c(-c3ccc(Oc4nccc(C)n4)c(F)c3)c3c(N)ncnc3n2C)cc1` [Example 1028], the half-maximal inhibitory concentration (IC50) in assay [2] (Homo sapiens, SNU-16 cells) was no more than 100 nM.

The compound `C#Cc1cc(C)c(-c2c(-c3ccc(Oc4nccc(C)n4)c(F)c3)c3c(N)ncnc3n2C)c(C)n1` (atropisomer, axis not shown) [Example 1342] had an IC50 in assay [2] (SNU-16 cells) of no more than 100 nM.

`C#Cc1ccc(-c2c(-c3ccc(Oc4nccc(C)n4)c(F)c3)c3c(N)ncnc3n2C(C)C)c(C)n1` (atropisomer, axis not shown) [Example 1258] returned a half-inhibitory concentration (IC50) in assay [2] (SNU-16 cells) of no more than 100 nM.

`C#Cc1cc(C)c(-c2c(-c3ncc(Oc4nccc(C)n4)cc3F)c3c(N)ncnc3n2C)c(C)n1` (atropisomer, axis not shown) [Example 1493] registered an IC50 in assay [2] (SNU-16 cells) of no more than 100 nM.

`C#Cc1cc(C)c(-c2c(C3=CC[C@@H](C(=O)N4CCC[C@H]4C#N)CC3)c3c(N)ncnc3n2C)c(C)n1` (atropisomer, axis not shown) [Example 1472]: in assay [2] (SNU-16 cells), the IC50 was no more than 100 nM.

Consider `C=CC(=O)Nc1ccc(-c2c(C3=CC[C@H](C(=O)N4CCCC4)CC3)c3c(N)ncnc3n2C)cc1` (single isomer, unassigned) [Example 1049], for which the half-maximal inhibitory concentration (IC50) in assay [2] (SNU-16 cells) was no more than 100 nM.

`C#Cc1cc(OC)c(-c2c(-c3ncc(Oc4nccc(C)n4)cc3F)c3c(N)ncnc3n2C)cn1` [Example 1489] registered an IC50 in assay [2] (SNU-16 cells) of no more than 100 nM.

In assay [2] (SNU-16 cells), `C#Cc1cc(C)c(-c2c(C3=CC[C@H](C(=O)N4CCC[C@H]4C)CC3)c3c(N)ncnc3n2C)c(F)n1` (atropisomer, axis not shown) [Example 1349] had an IC50 of no more than 100 nM.

In turn, `C=C(C)C(=O)Nc1cc(C)c(-c2c(C3=CC[C@H](C(=O)N4CCCC4)CC3)c3c(N)ncnc3n2C)c(C)c1` (single isomer, unassigned) [Example 1487] gave an IC50 in assay [2] (SNU-16 cells) of 1000 to 100000 nM.

For the compound `C#Cc1cc(C)c(-c2c(-c3ccc(Oc4nccc(C)n4)c(F)c3)c3c(C)ncnc3n2C)c(F)n1` [Example 1414], the 50% inhibitory concentration (IC50) in assay [2] (SNU-16 cells) is no more than 100 nM.
